Values quoted from earlier work as cited in patent US20210322558A1, “PHENYLEPHRINE RESINATE PARTICLES AND USE THEREOF IN PHARMACEUTICAL FORMULATIONS” (JOHNSON & JOHNSON CONSUMER INC., priority 2013, published 2021).

Key:
[1] = 30 mg dose administered orally over eight hours

| fraction of a therapeutic dose excreted unchanged in the urine | metabolized to m-hydroxy-phenylglycol-sulfate, % of the dose [1] | metabolized to m-hydroxymandelic acid, % of the dose [1] | metabolized to phenylephrine-glucuronide, % of the dose [1] | metabolized to phenylephrine-sulfate, % of the dose [1] | SMILES |
| --- | --- | --- | --- | --- | --- |
| Less than 9% | – | – | – | – | CC(=O)Nc1ccc(O)cc1 [acetaminophen] |
| – | 6% | 30% | 12% | 47% | CNC[C@H](O)c1cccc(O)c1.Cl [phenylephrine, (R)-1-(3-hydroxyphenyl)-2-methylaminoethanol] |
